Data: patent publication US11173126B2, “Nanoalum particles comprising a PAA sizing agent” (priority 2016, dated 2021)

How the values were obtained:
[1] = Particle size (Z-ave) and polydispersity by dynamic light scattering; format: physicochemical; details: single non-pegylated phospholipid included during milling; data not shown
C57/BL6 mice = details: mouse, in vivo
C57Bl/6 mice = details: mouse, in vivo

Molecule | effectiveness as sizing agent (aggregation of alum) [1] | luciferase expression from RNA replicon (C57/BL6 mice) | ID97-specific CD4+ T cell response (CD154, IFN-γ, TNF, IL-2) (C57Bl/6 mice)
CCCCCCCCCCCCCC(=O)OC[C@H](COP(=O)(O)OCCN)OC(=O)CCCCCCCCCCCCC [DMPE] | not found to be effective sizing agents |  | 
Distearoylglycerophosphoethanolamine [DSPE] | not found to be effective sizing agents |  | 
Poly(acrylic acid) [PAA] |  | does not deliver and/or induce an expressible level | low frequency
